From patent US20230167073A1 (Teijin Pharma Limited, priority 2020, published 2023)

Molecular target: T1, Human TRPC6 (Homo sapiens, UniProt Q9Y210)
T1 construct: expressed in transfected cells
T1 sequence (Q9Y210 1-931): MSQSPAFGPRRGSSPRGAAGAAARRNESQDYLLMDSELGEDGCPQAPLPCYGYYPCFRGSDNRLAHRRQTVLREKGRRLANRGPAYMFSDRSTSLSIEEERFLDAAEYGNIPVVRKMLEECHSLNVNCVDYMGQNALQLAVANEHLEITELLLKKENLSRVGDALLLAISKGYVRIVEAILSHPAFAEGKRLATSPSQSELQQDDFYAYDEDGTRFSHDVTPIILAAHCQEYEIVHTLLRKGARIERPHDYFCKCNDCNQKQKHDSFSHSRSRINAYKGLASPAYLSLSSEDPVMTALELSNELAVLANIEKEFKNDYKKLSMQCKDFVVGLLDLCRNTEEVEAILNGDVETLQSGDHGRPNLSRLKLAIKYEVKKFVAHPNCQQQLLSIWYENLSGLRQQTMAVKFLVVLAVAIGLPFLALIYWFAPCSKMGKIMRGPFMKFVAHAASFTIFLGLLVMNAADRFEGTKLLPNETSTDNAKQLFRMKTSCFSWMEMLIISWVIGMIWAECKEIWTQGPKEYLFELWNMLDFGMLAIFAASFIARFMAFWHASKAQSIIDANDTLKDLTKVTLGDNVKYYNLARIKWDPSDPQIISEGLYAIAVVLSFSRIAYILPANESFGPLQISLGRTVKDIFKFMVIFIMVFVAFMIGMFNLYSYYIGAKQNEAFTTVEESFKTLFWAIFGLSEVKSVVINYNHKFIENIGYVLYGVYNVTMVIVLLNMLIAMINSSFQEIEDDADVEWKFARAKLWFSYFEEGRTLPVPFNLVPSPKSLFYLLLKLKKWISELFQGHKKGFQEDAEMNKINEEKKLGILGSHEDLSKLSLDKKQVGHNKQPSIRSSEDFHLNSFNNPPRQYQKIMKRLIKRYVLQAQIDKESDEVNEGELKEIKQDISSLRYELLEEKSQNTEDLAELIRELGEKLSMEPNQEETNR
Experiment: Evaluation of TRPC6 channel inhibitory activity (1), FLIPR Calcium 5 Assay Kit, OAG stimulation (Compound Nos. 1-1293)
Type: cell-based
Conditions: Human TRPC6 stably-expressing cells, OAG 30 μM, FLIPR Calcium 5 Assay Kit; read-out: Inhibitory activity (pIC50 class) (converted)
Method in brief: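 Readout is pIC50 from four-parameter logistic fitting of inhibition of the OAG-evoked (30 μM final) fluorescence calcium signal. Human TRPC6 stable cells are dye-loaded with probenecid, and compound is applied 20 min ahead of agonist.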

| SMILES | IC50 |
| --- | --- |
| Cc1nc(Oc2cc(C#N)ccc2-n2cc([C@H](O)CN)cn2)cc(-c2ccccc2C)n1 [compound 354, 4-[4-[(1S)-2-amino-1-hydroxyethyl]pyrazol-1-yl]-3-[2-methyl-6-(2-methylphenyl)pyrimidin-4-yl]oxybenzonitrile] | 10 to 1000 nM |
| CN(C)c1cc(Cc2cc(C#N)ccc2-c2ncc(CCN)cn2)n(C)n1 [compound 1216, 4-[5-(2-aminoethyl)pyrimidin-2-yl]-3-[[5-(dimethylamino)-2-methylpyrazol-3-yl]methyl]benzonitrile] | 10 to 1000 nM |
| Cc1nc(Oc2cc(C#N)ccc2-c2ncc([C@H](O)CN)cn2)cc(N2CCOC(C)(C)C2)n1 [compound 561, 4-[5-[(1S)-2-amino-1-hydroxyethyl]pyrimidin-2-yl]-3-[6-(2,2-dimethylmorpholin-4-yl)-2-methylpyrimidin-4-yl]oxybenzonitrile] | 10 to 1000 nM |
| Cc1nc(Oc2cc(C#N)ccc2-c2ccc(CCN)cc2)cc(N2CC(F)(F)C2)n1 [Compound 24, 4-[4-(2-aminoethyl)phenyl]-3-[6-(3,3-difluoroazetidin-1-yl)-2-methylpyrimidin-4-yl]oxybenzonitrile] | 10 to 1000 nM |
| Cc1nc(Oc2cc(C#N)ccc2-c2ncc(CN)cn2)cc(N2CCC2)n1 [compound 789, 4-[5-(aminomethyl)pyrimidin-2-yl]-3-[6-(azetidin-1-yl)-2-methylpyrimidin-4-yl]oxybenzonitrile] | 10 to 1000 nM |
| N#Cc1ccc(-c2ncc(CCN)cn2)c(Oc2nnc(-c3ccccn3)s2)c1 [compound 703, 4-[5-(2-aminoethyl)pyrimidin-2-yl]-3-[(5-pyridin-2-yl-1,3,4-thiadiazol-2-yl)oxy]benzonitrile] | 10 to 1000 nM |
| Cn1nc(C2CC2)cc1Oc1cc(C#N)ccc1-c1cc(CCN)ccn1 [compound 482, 4-[4-(2-aminoethyl)pyridin-2-yl]-3-(5-cyclopropyl-2-methylpyrazol-3-yl)oxybenzonitrile] | < 10 nM |
| Cc1nc(Oc2cc(C#N)ccc2-n2cc(CCN)cn2)cc(N2CCOCC2)n1 [Compound 259, 4-[4-(2-aminoethyl)pyrazol-1-yl]-3-(2-methyl-6-morpholin-4-ylpyrimidin-4-yl)oxybenzonitrile] | 10 to 1000 nM |
| Cc1nn(CC(F)(F)F)cc1Oc1cc(C#N)ccc1-c1ncc(CN)cn1 [compound 835, 4-[5-(aminomethyl)pyrimidin-2-yl]-3-[3-methyl-1-(2,2,2-trifluoroethyl)pyrazol-4-yl]oxybenzonitrile] | < 10 nM |
| Cn1nc(C(F)F)cc1Oc1cc(C#N)ccc1-c1ccc(CN)cn1 [compound 828, 4-[5-(aminomethyl)pyridin-2-yl]-3-[5-(difluoromethyl)-2-methylpyrazol-3-yl]oxybenzonitrile] | < 10 nM |
| Cc1cc(Oc2cc(C#N)ccc2-c2nccc(CN)n2)cc(N2CCOCC2)n1 [compound 681, 4-[4-(aminomethyl)pyrimidin-2-yl]-3-(2-methyl-6-morpholin-4-ylpyridin-4-yl)oxybenzonitrile] | > 1000 nM |
| Cn1nc(C2CC2)cc1Oc1cc(C#N)ccc1-c1cnc(CCN)nc1 [compound 347, 4-[2-(2-aminoethyl)pyrimidin-5-yl]-3-(5-cyclopropyl-2-methylpyrazol-3 yl)oxybenzonitrile] | > 1000 nM |
| CN(C)c1cc(Oc2cc(F)ccc2-c2ncc(CCN)cn2)n(C)n1 [compound 999, 5-[2-[5-(2-aminoethyl)pyrimidin-2-yl]-5-fluorophenoxy]-N,N,1-trimethylpyrazole-3-amine] | 10 to 1000 nM |
| Cc1cc(Oc2cc(C#N)ccc2-c2ccc([C@H](O)CN)cn2)cc(-c2ccccn2)n1 [compound 691, 4-[5-[(1S)-2-amino-1-hydroxyethyl]pyridin-2-yl]-3-(2-methyl-6-pyridin-2-ylpyridin-4-yl)oxybenzonitrile] | < 10 nM |
| N#Cc1ccc(-c2ccc(CCN)cc2)c(Oc2cnnc(C3CCCC3)c2)c1 [Compound 137, 4-[4-(2-aminoethyl)phenyl]-3-(6-cyclopentylpyridazin-4-yl)oxybenzonitrile] | < 10 nM |
| Cn1nc(C(C)(C)C)cc1Oc1cc(C#N)ccc1-c1ccc([C@H](O)CN)cn1 [compound 405, 4-[5-[(1S)-2-amino-1-hydroxyethyl]pyridin-2-yl]-3-(5-tert-butyl-2-methylpyrazol-3-yl)oxybenzonitrile] | < 10 nM |
| Cc1cc(Oc2cc(C#N)ccc2-n2ccc(C(O)CN)n2)cc(-c2ccccc2)n1 (stereo not drawn) [Compound 203, 4-[3-(2-amino-1-hydroxyethyl)pyrazol-1-yl]-3-(2-methyl-6-phenylpyridin-4-yl)oxybenzonitrile] | 10 to 1000 nM |
| N#Cc1ccc(-c2ncc(CCN)cn2)c(Cn2cc(-c3ccccc3)cn2)c1 [compound 1201, 4-[5-(2-aminoethyl)pyrimidin-2-yl]-3-[(4-phenylpyrazol-1-yl)methyl]benzonitrile] | 10 to 1000 nM |
| Cc1nn(-c2ccccn2)cc1Cc1cc(C#N)ccc1-c1ncc(CCN)cn1 [compound 1202, 4-[5-(2-aminoethyl)pyrimidin-2-yl]-3-[(3-methyl-1-pyridin-2-ylpyrazol-4-yl)methyl]benzonitrile] | < 10 nM |
| CC(C)c1cn(Cc2cc(C#N)ccc2-c2ncc(CCN)cn2)nn1 [compound 1185, 4-[5-(2-aminoethyl)pyrimidin-2-yl]-3-[(4-propan-2-yltriazol-1-yl)methyl]benzonitrile] | < 10 nM |
| CN(C)c1cc(C(=O)c2cc(C#N)ccc2-c2ncc(CCN)cn2)n(C)n1 [compound 1043, 4-[5-(2-aminoethyl)pyrimidin-2-yl]-3-[5-(dimethylamino)-2-methylpyrazole-3-carbonyl]benzonitrile] | < 10 nM |
| Cc1cc(Oc2cc(C#N)ccc2-c2ccc(CCN)cc2)cc(N2CCOCC2)n1 [Compound 138, 4-[4-(2-aminoethyl)phenyl]-3-(2-methyl-6-morpholin-4-ylpyridin-4-yl)oxybenzonitrile] | < 10 nM |
| Cc1cc(Oc2cc(C#N)ccc2-c2ccc([C@H](O)CN)cn2)cc(-c2nc(C)cs2)n1 [compound 694, 4-[5-[(1S)-2-amino-1-hydroxyethyl]pyridin-2-yl]-3-[2-methyl-6-(4-methyl-1,3-thiazol-2-yl)pyridin-4-yl]oxybenzonitrile] | 10 to 1000 nM |
| Cc1nc(Oc2cc(C#N)ccc2-c2ncc(CN)cn2)cc(N2CCC2=O)n1 [compound 882, 4-[5-(aminomethyl)pyrimidin-2-yl]-3-[2-methyl-6-(2-oxoazetidin-1-yl)pyrimidin-4-yl]oxybenzonitrile] | > 1000 nM |
| N#Cc1ccc(-c2ncc(CN)cn2)c(C(=O)c2cnn(C3CCOCC3)c2)c1 [compound 1056, 4-[5-(aminomethyl)pyrimidin-2-yl]-3-[1-(oxan-4-yl)pyrazole-4-carbonyl]benzonitrile] | 10 to 1000 nM |
| Cc1nc(Oc2cc(C#N)ccc2-c2ccc(C(O)CN)c(F)c2F)cc(N2CCOCC2)n1 (stereo not drawn) [Compound 153, 4-[4-(2-amino-1-hydroxyethyl)-2,3-difluorophenyl]-3-(2-methyl-6-morpholin-4-ylpyrimidin-4-yl)oxybenzonitrile] | < 10 nM |
| CCN(CC)c1cc(Oc2cc(C#N)ccc2-c2ncc(CN)cn2)n(C)n1 [compound 655, 4-[5-(aminomethyl)pyrimidin-2-yl]-3-[5-(diethylamino)-2-methylpyrazol-3-yl]oxybenzonitrile] | < 10 nM |
